US7109193B2, “Tricyclic diazepines tocolytic oxytocin receptor antagonists” (Wyeth, priority 2001, dated 2006)

Target: T1, human vasopressin V2 receptor subtype (Homo sapiens, UniProt P30518)
T1 construct: host or cells: CHO cells (pZeoSV vector)
Assay: Vasopressin binding in Chinese Hamster Ovary cell membranes expressing human vasopressin V2 subtype receptors
Settings: 100 nM, CHO cell membranes, [3H]arginine vasopressin, values without parentheses
In short: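 Radioligand displacement on membranes from CHO cells stably expressing human V2 receptor, 25 to 50 μg protein/well, in 50 mM Tris-HCl pH 7.4 with MgCl2, BSA and protease inhibitors. [^3H]arginine vasopressin (8 nM working solution) incubated 60 min at room temperature; bound label measured by filtration and scintillation counting.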

T1 sequence (P30518 whole entry): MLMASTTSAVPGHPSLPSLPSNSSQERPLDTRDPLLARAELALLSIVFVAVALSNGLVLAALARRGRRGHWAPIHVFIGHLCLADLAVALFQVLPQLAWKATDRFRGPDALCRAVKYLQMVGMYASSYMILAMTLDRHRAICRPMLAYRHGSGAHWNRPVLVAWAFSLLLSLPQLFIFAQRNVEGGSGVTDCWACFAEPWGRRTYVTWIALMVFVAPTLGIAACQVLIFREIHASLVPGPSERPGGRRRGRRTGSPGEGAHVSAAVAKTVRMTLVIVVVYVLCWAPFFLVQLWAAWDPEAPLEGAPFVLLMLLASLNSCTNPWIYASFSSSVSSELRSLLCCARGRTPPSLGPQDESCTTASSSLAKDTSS

Row | inhibition at 0.1 µM | SMILES
1 | 23% | COc1cc(C(=O)N2Cc3ccc(C(=O)N4CCN(C)CC4)n3Cc3ccccc32)ccc1-c1ccccc1C [Example 53, {10-[(2-Methoxy-2′-methyl[1,1′-biphenyl]-4-yl)carbonyl]-10,11-dihydro-5H-pyrrolo[2,1-c][1,4]benzodiazepin-3-yl}(4-methyl-1-piperazinyl)methanone]
2 | 21% | COc1cc(C(=O)N2Cc3ccc(C(=O)N4CCN(CCCN(C)C)CC4)n3Cc3ccccc32)ccc1-n1c(C)ccc1C [Example 320, {4-[3-(Dimethylamino)propyl]-1-piperazinyl}{10-[4-(2,5-dimethyl-1H-pyrrol-1-yl)-3-methoxybenzoyl]-10,11-dihydro-5H-pyrrolo[2,1-c][1,4]benzodiazepin-3-yl}methanone]
